From patent US20240368163A1, “COMPOUNDS AND METHODS FOR MODULATING SPLICING” (REMIX THERAPEUTICS INC., priority 2021, published 2024)
Where two headings read alike, the source gives them in different places.

Tests used:
Format in all cases: cell-based, human
MYB [1] = assay: HiBiT protein abundance assay, MYB; conditions: Homo sapiens, K562, 24 h, modified K562 cells
Experimental: (§1) Compounds described herein were used to screen for effects on quantitative protein abundance using a HiBit assay system (Promega). Quantitative protein abundance was determined by measuring the protein levels of HiBit-tagged protein targets expressed in cell culture via luminescence using the Nano-Glo HiBiT Lytic Detection System, which uses a split complementation assay format to reconstitute NanoBiT enzyme to generate a luminescent signal. A protein abundance assay was developed such that endogenous protein targets could be modified with the HiBiT peptide tag and their abundance could be assessed after compound treatment. Briefly, K562 cell lines containing a HiBiT-modification were treated with various compounds described herein (e.g., compounds of Formulas (I), (II), or (III)). After treatment for 24 hours, the protein abundance of a specific target was determined by measuring luminescence.
(§2) Cells were maintained in IMIDM with 10% FBS. Before the assay, cells were diluted with […] growth media (IMIDM+[…] media) and were seeded in a 384-well plate at a density of 10000 cells/well (for each cell line listed in Table 12). Each compound was prepared as a 10-point 3-fold serial dilution in DMSO with the top dose at a final concentration of 10 μM in the well. Unmodified K562 cells were added at the previously specified density with DMSO to serve as an assay baseline and positive control (PC) and DMSO only with the respective modified cell lines was added to the negative control (NC) columns. Final DMSO concentration was kept at or below 0.25%. Treated cell plates were placed in an incubator at 37° C. with 5% CO2 for 24 hours. After 24 hours, 25 μL of Complete HiBit Lytic reagent was added to each well at room temperature (e.g. one plate requiring 10 mL Lytic Buffer, 100 μL LgBiT Protein, 200 μL Lytic Substrate), shaken for 5 minutes at 600 RPM, then left to sit for 10 minutes for signal to stabilize before reading on a Spark Cyto plate reader (Tecan) with a 500 ms measurement time.
(§3) To determine compound effects on protein abundance of each target in Table 12, the percent response for each respective cell line was calculated at each compound concentration as follows:
(§4) For the normalized response at each concentration, a four-parameter logistical regression was fit to the data and the response was interpolated at the 50% value to determine a concentration for protein abundance at 50% (IC50) the untreated control.

Target C [2] = assay: HiBiT protein abundance assay, Target C; conditions: Homo sapiens, K562, 24 h, modified K562 cells
Experimental: • Promega Nano-Glo HiBiT Lytic Detection System (cat #N3030) • Coming 384-well TC-treated microplates (cat #3570) • Synthego Engineered Cells Knock-In Clones
as §2, §3, §4

MYB [3] = assay: Splicing RT-qPCR assay, MYB mRNA canonical junction (CJ) and alternative junction (AJ); conditions: Homo sapiens; for AC50: increase in AJ mRNA
Experimental: (§5) Compounds described herein were used to modulate RNA transcript abundance in cells. The expression of a target mRNA was measured by detecting the formation of an exon-exon junction in the canonical transcript (CJ). A compound mediated exon-inclusion event was detected by observing an increase in formation of a new junction with an alternative exon (AJ). Real-time qPCR assays were used to detect these splicing switches and interrogate the potency of various compounds towards different target genes. A high-throughput real time quantitative PCR (RT-qPCR) assay was developed to measure these two isoforms of the mRNA (CJ and AJ) for exemplary genes, such as HTT, SMN2, and MYB, together with a control housekeeping gene, GAPDH or GUSB or PPIA, used for normalization. Briefly, the A673 or K562 cell line was treated with various compounds described herein (e.g., compounds of Formula (I)). After treatment, the levels of the HTT, MYB, or SMN2 mRNA targets were determined from each sample of cell lysate by cDNA synthesis followed by qPCR.
(§6) The A673 cell line was cultured in DMEM with 10% FBS. Cells were diluted with full growth media and plated in a 96-well plate (15,000 cells in 100 ul media per well). The plate was incubated at 37° C. with 5% CO2 for 24 hours to allow cells to adhere. An 11-point 3-fold serial dilution of the compounds was made in DMSO then diluted in media in an intermediate plate. Compounds were transferred from the intermediate plate to the cell plate with the top dose at a final concentration of 10 uM in the well. Final DMSO concentration was kept at or below 0.25%. The cell plate was returned to the incubator at 37° C. with 5% CO2 for an additional 24 hours.
(§7) The K562 cell line was cultured in IMDM with 10% FBS. For K562, cells were diluted with full growth media and plated in either a 96-well plate (50,000 cells in 50 uL media per well) or a 384-well plate (8,000-40,000 cells in 45 uL media per well). An 11-point 3-fold serial dilution of the compounds were made in DMSO then diluted in media in an intermediate plate. Compound was transferred from the intermediate plate to the cell plate with the top dose at a final concentration of 10 uM in the well. Final DMSO concentration was kept at or below 0.25%. Final volume was 100 uL for 96-well plate and 50 uL for 384-well plate. The cell plate was then placed in an incubator at 37° C. with 5% CO2 for 24 hours.
(§8) The cells were then gently washed with 50 uL-100 uL cold PBS before proceeding to addition of lysis buffer. 30 uL-50 μL of room temperature lysis buffer with DNAse I (and optionally RNAsin) was added to each well. Cells were shaken/mixed thoroughly at room temperature for 5-10 minutes for lysis to take place and then 3 uL-5 μL of room temperature stop solution was added and wells were shaken/mixed again. After 2-5 minutes, the cell lysate plate was transferred to ice for RT-qPCR reaction setup. The lysates could also be frozen at −80° C. for later use.
(§9) In some cases, a direct lysis buffer was used. An appropriate volume of 3× lysis buffer (10 mM Tris, 150 mM NaCl, 1.5%-2.5% Igepal and 0.1-1 U/uL RNAsin, pH 7.4) was directly added to either K562 or A673 cells in media and mixed by pipetting 3 times. The plates were then incubated at room temperature with shaking/rocking for 20-50 minutes to allow for lysis to take place. After this time, the cell lysate plate was transferred to ice to set up for the RT-qPCR reactions. The lysates could also be frozen at −80° C. for later use.
(§10) To set up 10 uL RT-qPCR reactions, cell lysates were transferred to 384-well qPCR plates containing the master mix according to the table below. The plates were sealed, gently vortexed, and spun down before the run. The volumes were adjusted accordingly in some instances where the reaction was carried in 20 μL. The table below summarizes the components of the RT-qPCR reactions:
(§11) The RT-qPCR reaction was performed using a QuantStudio (ThermoFisher) under the following fast cycling conditions. […]

HTT [4] = assay: Splicing RT-qPCR assay, HTT mRNA canonical junction (CJ) and alternative junction (AJ); conditions: Homo sapiens; for AC50: increase in AJ mRNA
Experimental: as §5, §6, §7, §8, §9, §10, §11

Target C [5] = assay: Splicing RT-qPCR panel, Target C canonical junction (CJ) mRNA; conditions: Homo sapiens, RT-qPCR panel, canonical junction mRNA; compound concentration having 50% response in CJ decrease; read-out: Target C IC50 (decrease in CJ mRNA levels)
Experimental: as §5, §6, §7, §8, §9, §10, §11

HTT [6] = assay: HiBiT protein abundance assay, HTT; conditions: Homo sapiens, K562, 24 h, modified K562 cells
Experimental: as §1, §2, §3, §4

SMN2 = assay: Splicing RT-qPCR panel, SMN2 canonical junction (CJ) mRNA; conditions: Homo sapiens, read-out: SMN2 IC50 (decrease in CJ mRNA levels)
Experimental: as §5, §6, §7, §8, §9, §10, §11

[7] = 24 h, decrease in CJ mRNA, A673 or K562 cells, 24 hours treatment, RT-qPCR, read-out: MYB CJ IC50
[8] = 24 h, A673 or K562 cells, 24 hours treatment, RT-qPCR
[9] = RT-qPCR panel, canonical junction mRNA, compound concentration having 50% response in CJ decrease, read-out: MYB IC50 (decrease in CJ mRNA levels)
[10] = A673 or K562 cells, 24 hours treatment, RT-qPCR
[11] = RT-qPCR panel, canonical junction mRNA, compound concentration having 50% response in CJ decrease, read-out: HTT IC50 (decrease in CJ mRNA levels)
[12] = RT-qPCR panel, canonical junction mRNA, compound concentration having 50% response in CJ decrease
[13] = 24 h, decrease in CJ mRNA, A673 or K562 cells, 24 hours treatment, RT-qPCR, read-out: HTT CJ IC50

SMILES	IC50 (MYB [3]; [7]) [nM]	AC50 (MYB [3]; [8]) [nM]	IC50 (MYB [3]; [9]) [nM]	AC50 (HTT [4]; [8]) [nM]	IC50 (Target C [5]) [nM]	IC50 (HTT [4]; [11]) [nM]	IC50 (SMN2; [12]) [nM]	other results
C[C@@H]1C[C@H](N(C)c2ccc(-c3ccc(-n4cccn4)c4nn[nH]c34)nn2)CCN1 [Compound 117]	1000 to 10000	1000 to 10000	1000 to 10000	1000 to 10000	1000 to 10000			IC50 (MYB [1]; Table 13A): 1 to 10 µM; IC50 (Target C [2]; Table 13A): 1 to 10 µM; IC50 (HTT [6]; Table 13A): 1 to 10 µM
CN(c1cnc(-c2cc(F)c(-c3cn[nH]c3)c3cn[nH]c23)nn1)[C@@H]1C[C@H]2CC[C@@H](C1)N2 [Compound 149]			1000 to 10000		100 to 1000	< 100	100 to 1000	IC50 (MYB [3]; decrease in CJ mRNA, A673 or K562 cells, 24 hours treatment, RT-qPCR, read-out: MYB CJ IC50): 1000 to 10000 nM; AC50 (MYB [3]; [10]): 1000 to 10000 nM; AC50 (HTT [4]; [10]): < 100 nM
CN(c1ccc(-c2ccc(-n3cccn3)c3cn[nH]c23)nn1)C1CC(C)(C)NC(C)(C)C1 [Compound 150]	100 to 1000	100 to 1000	100 to 1000	1000 to 10000		100 to 1000	100 to 1000	IC50 (HTT [4]; [13]): 100 to 1000 nM
CC1(C)CC(Oc2ccc(-c3ccc(-c4cn[nH]c4)c4cn[nH]c34)nn2)CC(C)(C)N1 [Compound 138]	100 to 1000	100 to 1000	100 to 1000	100 to 1000	100 to 1000	100 to 1000	100 to 1000	IC50 (HTT [4]; [13]): 100 to 1000 nM
CN(c1ccc(-c2ccc(-c3cn[nH]c3)c3nn[nH]c23)nn1)[C@@H]1C[C@H]2CC[C@@H](C1)N2 [Compound 118]	> 10000	1000 to 10000	> 10000	> 10000	1000 to 10000			IC50 (MYB [1]; Table 13A): 1 to 10 µM; IC50 (Target C [2]; Table 13A): 1 to 10 µM; IC50 (HTT [6]; Table 13A): 1 to 10 µM
COc1nc(-c2ccc(N(C)[C@@H]3CCN[C@H](C)C3)nn2)ccc1-c1cn[nH]c1 [Compound 909]								IC50 (MYB [1]; Table 13B): 1 to 10 µM; IC50 (Target C [2]; Table 13B): 1 to 10 µM; IC50 (MYB [3]; gene panel, CJ qPCR, protocol of Example 142, read-out: MYB IC50 (decrease in CJ mRNA levels)): 1000 to 10000 nM; IC50 (HTT [4]; gene panel, CJ qPCR, protocol of Example 142, read-out: HTT IC50 (decrease in CJ mRNA levels)): 1000 to 10000 nM; IC50 (SMN2; gene panel, CJ qPCR, protocol of Example 142): 100 to 1000 nM; IC50 (HTT [6]; Table 13B): 1 to 10 µM
c1cnn(-c2ccc(-c3cnc(O[C@H]4C[C@H]5COC[C@@H](C4)N5)nn3)c3cn[nH]c23)c1 [Compound 585]			> 10000		> 10000	> 10000	> 10000	
